Results reported in patent US20240226115A1, “AXL INHIBITOR COMPOUNDS” (ARCUS BIOSCIENCES, INC., priority 2021, published 2024).

These compounds were tested against T1, Axl (Homo sapiens, UniProt P30530) (assay: Axl NanoBRET intracellular kinase assay (Cell Binding)). Conditions: HEK-293 cells transfected with Axl-NanoLuc fusion vector; displacement of K-5 NanoBRET tracer.
T1 sequence (P30530 26-894): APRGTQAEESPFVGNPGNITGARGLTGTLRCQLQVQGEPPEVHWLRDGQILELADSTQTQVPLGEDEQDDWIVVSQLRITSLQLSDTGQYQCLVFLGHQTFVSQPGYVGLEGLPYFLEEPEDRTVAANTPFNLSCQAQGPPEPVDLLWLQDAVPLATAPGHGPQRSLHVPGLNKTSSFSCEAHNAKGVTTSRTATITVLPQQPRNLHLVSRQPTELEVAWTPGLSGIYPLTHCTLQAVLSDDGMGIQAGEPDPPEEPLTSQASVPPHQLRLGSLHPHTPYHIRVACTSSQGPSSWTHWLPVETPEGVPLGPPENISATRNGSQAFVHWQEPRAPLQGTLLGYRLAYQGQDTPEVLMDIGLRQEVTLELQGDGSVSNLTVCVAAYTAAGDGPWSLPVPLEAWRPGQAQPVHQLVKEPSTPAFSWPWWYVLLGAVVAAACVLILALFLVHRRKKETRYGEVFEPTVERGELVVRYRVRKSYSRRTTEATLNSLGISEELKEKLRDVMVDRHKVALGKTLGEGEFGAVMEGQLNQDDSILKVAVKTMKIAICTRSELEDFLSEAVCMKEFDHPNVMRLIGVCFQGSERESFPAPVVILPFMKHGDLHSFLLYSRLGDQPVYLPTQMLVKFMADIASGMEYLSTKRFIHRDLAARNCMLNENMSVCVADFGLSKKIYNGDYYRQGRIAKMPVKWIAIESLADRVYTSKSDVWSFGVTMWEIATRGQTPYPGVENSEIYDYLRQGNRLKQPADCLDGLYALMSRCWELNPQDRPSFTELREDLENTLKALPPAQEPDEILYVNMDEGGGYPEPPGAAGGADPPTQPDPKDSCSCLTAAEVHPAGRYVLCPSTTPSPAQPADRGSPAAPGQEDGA
Parameters: host or cells: HEK-293
Protocol: Axl NanoBRET™ intracellular kinase assay (Promega, N2540) was performed according to manufacturer's recommendation. In brief, HEK-293 cells are transiently transfected with Axl-NanoLuc fusion vector (Promega, NV1071), utilizing Fugene HD transfection reagent (Promega, E2311) a day before experiment following manufacturer's recommendation.
The day of the assay, the cells were collected and resuspended in Opti-MEM media (ThermoFisher, 31985070) at 2e5 cells/mL concentration. Testing compounds were serial diluted and dispensed into a white 384 well polystyrene plate at 200 nL in 100% DMSO. 40 μL of resuspended cells is then added per well for a final condition of 8K cells/well with 0.5% DMSO. After one-hour compound pre-incubation at 37° C. and 5% CO2, cells were further incubated with 0.35 μM K-5 NanoBRET tracer for two-hours at 37° C. and 5% CO2. […] of 3× substrate plus Inhibitor solution was prepared according to kits manual and added to the cells followed by a 30 second pulse centrifugation spin. The plate was then immediately read utilizing an Envision (Perkin Elmer) plate reader. The BRET signal is measured by taking the ratio of the emissions reading at 610 nm and 450 nm. Compound binding is based on the decrease BRET signal caused by the displacement of the K-5 tracer. […] IC50 value of compounds was determined by 4-parameter non-linear regression fitting of percent activity in GraphPad Prism software.

Row | Compound | IC50 [µM]
1 | O=C1NCCOc2cc(-c3n[nH]c4ncc(-c5ccc6c(c5)CN(C5CCCC5)CC6)cc34)ccc21 [Example 10, 8-(5-(2-Cyclopentyl-1,2,3,4-tetrahydroisoquinolin-7-yl)-1H-pyrazolo[3,4-b]pyridin-3-yl)-3,4-dihydrobenzo[f][1,4]oxazepin-5(2H)-one] | 0.1 to 1
2 | O=C1NCCOc2cc(-c3n[nH]c4ncc(-c5ccc6c(c5)CCC(N5CCNCC5)CC6)cc34)ccc21 (centres unmarked) [Example 48, 8-{5-[7-(Piperazin-1-yl)-6,7,8,9-tetrahydro-5H-benzo[7]annulen-2-yl]-1H-pyrazolo[3,4-b]pyridin-3-yl}-2,3,4,5-tetrahydro-1,4-benzoxazepin-5-one] | 0.1 to 1
3 | O=C1NCCOc2cc(-c3n[nH]c4ncc(-c5ccc6c(c5)CCNC6)cc34)ccc21 [Example 54, 8-(5-(1,2,3,4-Tetrahydroisoquinolin-6-yl)-1H-pyrazolo[3,4-b]pyridin-3-yl)-3,4-dihydrobenzo[f][1,4]oxazepin-5(2H)-one] | 0.1 to 1
4 | O=C1NCCOc2cc(-c3n[nH]c4ncc(-c5ccc6c(c5)CCN(C5CC5)CC6)cc34)ccc21 [Example 20, 8-(5-(3-Cyclopropyl-2,3,4,5-tetrahydro-1H-benzo[d]azepin-7-yl)-1H-pyrazolo[3,4-b]pyridin-3-yl)-3,4-dihydrobenzo[f][1,4]oxazepin-5(2H)-one] | 0.1 to 1
5 | O=C1NCCOc2cc(-c3n[nH]c4ncc(-c5ccc6c(c5)CCC(N5CCOCC5)CC6)cc34)ccc21 (centres unmarked) [Example 47, 8-{5-[7-(Morpholin-4-yl)-6,7,8,9-tetrahydro-5H-benzo[7]annulen-2-yl]-1H-pyrazolo[3,4-b]pyridin-3-yl}-2,3,4,5-tetrahydro-1,4-benzoxazepin-5-one] | < 0.1

Other lines, results leading:

Row | IC50 [µM] | Compound
6 | < 0.1 | C[C@@H]1CCCN1C1CCc2ccc(-c3cnc4[nH]nc(-c5ccc6c(c5)S(=O)(=O)NC6(C)C)c4c3)cc2CC1 (stereo partly drawn) [Example 33, 3,3-Dimethyl-6-(5-{7-[(2R)-2-methylpyrrolidin-1-yl]-6,7,8,9-tetrahydro-5H-benzo[7]annulen-2-yl}-1H-pyrazolo[3,4-b]pyridin-3-yl)-2,3-dihydro-1λ^6,2-benzothiazole-1,1-dione]
7 | < 0.1 | COCCN1CCc2ccc(-c3cnc4[nH]nc(-c5ccc6c(c5)OCCNC6=O)c4c3)cc2CC1 [Example 15, 8-(5-(3-(2-Methoxyethyl)-2,3,4,5-tetrahydro-1H-benzo[d]azepin-7-yl)-1H-pyrazolo[3,4-b]pyridin-3-yl)-3,4-dihydrobenzo[f][1,4]oxazepin-5(2H)-one]
8 | < 0.1 | O=C1NCCOc2cc(-c3n[nH]c4ncc(-c5ccc6c(c5)CCC(N5CCC[C@@H]5CO)CC6)cc34)ccc21 (stereo partly drawn) [Example 49, 8-(5-{7-[(2R)-2-(Hydroxymethyl)pyrrolidin-1-yl]-6,7,8,9-tetrahydro-5H-benzo[7]annulen-2-yl}-1H-pyrazolo[3,4-b]pyridin-3-yl)-2,3,4,5-tetrahydro-1,4-benzoxazepin-5-one]
9 | < 0.1 | C[C@@H]1CCCN1C1CCc2ccc(-c3cnc4[nH]nc(-c5cc6c(cc5F)C(=O)NCCO6)c4c3)cc2CC1 (stereo partly drawn) [Example 61, 7-Fluoro-8-(5-{7-[(2R)-2-methylpyrrolidin-1-yl]-6,7,8,9-tetrahydro-5H-benzo[7]annulen-2-yl}-1H-pyrazolo[3,4-b]pyridin-3-yl)-2,3,4,5-tetrahydro-1,4-benzoxazepin-5-one]
10 | < 0.1 | C[C@@H]1CNC(=O)c2ccc(-c3n[nH]c4ncc(-c5ccc6c(c5)CCC(N5CCC[C@H]5C)CC6)cc34)cc2O1 (stereo partly drawn) [Example 59, (2R)-2-Methyl-8-(5-{7-[(2R)-2-methylpyrrolidin-1-yl]-6,7,8,9-tetrahydro-5H-benzo[7]annulen-2-yl}-1H-pyrazolo[3,4-b]pyridin-3-yl)-2,3,4,5-tetrahydro-1,4-benzoxazepin-5-one]
11 | < 0.1 | O=C1NCCOc2cc(-c3n[nH]c4ncc(-c5ccc6c(c5)CCC(N[C@H]5CCOC5)C6)cc34)ccc21 (stereo partly drawn) [Example 4, 8-[5-(6-{[(3S)—Oxolan-3-yl]amino}-5,6,7,8-tetrahydronaphthalen-2-yl)-1H-pyrazolo[3,4-b]pyridin-3-yl]-2,3,4,5-tetrahydro-1,4-benzoxazepin-5-one]
